Test systems include SK-MEL-28 melanoma; A549 NSCLC; SK-MEL-5 melanoma; 786-0 renal; IGROV1 ovarian; OVCAR-4 ovarian; HCT-116 colon; MALME-3M melanoma; SF-268 CNS; SR leukemia.
Common to all, as to assay: NCI anticancer screen, dose series, 48 h

Several values for one entry are separate records, joined by “and”; a condition that tells them apart may be missing. Equal entries are not always repeated.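 Each compound was tested at five concentrations against cells in 96-well plates for 48 hours. GI50: concentration for 50% inhibition of growth. TGI is the concentration that stops growth completely.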

`O=P([O-])(O)OP(=O)([O-])O.[NH-][C@@H]1CCCC[C@H]1[NH-].[Pt+4]`: the GI50 is 14.1 µM and 5.74 µM in the assay with SK-MEL-28 melanoma; 10 µM with A549 NSCLC; 20.6 µM and 7.98 µM in the assay on 786-0 renal; 12.3 µM and 4.8 µM in the assay on IGROV1 ovarian; > 75.1 µM and 11.2 µM with OVCAR-4 ovarian; 5.01 µM and 2.61 µM in the assay on HCT-116 colon. Further, the GI50 is 11.7 µM and 2.98 µM in the assay on MALME-3M melanoma; 60.6 µM and 6.27 µM in the assay with SF-268 CNS. The TGI in the assay with SK-MEL-28 melanoma is > 100 µM and 61.8 µM; in the assay on A549 NSCLC, greater than 100 µM; with SK-MEL-5 melanoma, > 100 µM and 14.9 µM; in the assay with 786-0 renal, > 100 µM and 76.6 µM; in the assay on IGROV1 ovarian, greater than 100 µM; in the assay on OVCAR-4 ovarian it was greater than 100 µM. Also, the TGI was greater than 100 µM in the assay with HCT-116 colon; > 100 µM and 29 µM in the assay on MALME-3M melanoma; greater than 100 µM with SF-268 CNS.

As for `CCn1c(O)c(C=N)c(=O)n(CC)c1=O`, the TGI in the assay with SK-MEL-28 melanoma, in the assay with A549 NSCLC, in the assay with SK-MEL-5 melanoma, in the assay with 786-0 renal, in the assay on IGROV1 ovarian and with OVCAR-4 ovarian was greater than 100 µM throughout. Besides, the TGI in the assay with HCT-116 colon, in the assay on MALME-3M melanoma and in the assay on SF-268 CNS was greater than 100 µM throughout.

For the molecule `CCc1nc(N)nc(C(=O)NCCNC(=O)c2nc(N)nc(CC)c2C)c1C`, the TGI in the assay on SK-MEL-28 melanoma, with A549 NSCLC, with SK-MEL-5 melanoma, in the assay on 786-0 renal, with IGROV1 ovarian and in the assay on OVCAR-4 ovarian was greater than 100 µM each time. The TGI with HCT-116 colon, in the assay with MALME-3M melanoma and with SF-268 CNS was greater than 100 µM in each case.

As for `C1CCN(C2OC3C(COC3N3CCCCC3)OC2OC2CCO[C@@H]2N2CCCCC2)CC1` (some centres undefined), the TGI in the assay on SK-MEL-28 melanoma, with A549 NSCLC, with SK-MEL-5 melanoma, in the assay on 786-0 renal, with IGROV1 ovarian and in the assay with OVCAR-4 ovarian was greater than 100 µM each time. The TGI with HCT-116 colon was greater than 100 µM; with MALME-3M melanoma, 83.2 µM; with SF-268 CNS, greater than 100 µM.

For the molecule `CCCC(C)C[C@@H](C)CC(C)/C=C(\C)c1oc(=O)c(C)c(O)c1C` (some centres undefined) (tested in a mixture with another compound), the TGI stood at 28.2 µM with SK-MEL-28 melanoma; 34 µM in the assay with A549 NSCLC; 29.5 µM in the assay on 786-0 renal; 26.6 µM in the assay with OVCAR-4 ovarian; 32.3 µM in the assay with HCT-116 colon; 9.17 µM with MALME-3M melanoma. Moreover, the TGI with SF-268 CNS was 33.5 µM.

`O=C([O][Hg][CH2]C1COCC([CH2][Hg][O]C(=O)c2ccccc2)O1)c1ccccc1` (centres undefined): the GI50 with SK-MEL-28 melanoma is 6.86 µM; in the assay on A549 NSCLC, 12.6 µM; in the assay with SK-MEL-5 melanoma it was 11.9 µM; with 786-0 renal, 16.8 µM; in the assay with IGROV1 ovarian, 2.1 µM; in the assay on OVCAR-4 ovarian, 14.4 µM. The values for the GI50 with HCT-116 colon and with SF-268 CNS were 1.56 µM and 16.6 µM, respectively. Further, the TGI in the assay with SK-MEL-28 melanoma amounted to 19.6 µM; in the assay with A549 NSCLC, 27.2 µM; in the assay on SK-MEL-5 melanoma, 24.6 µM; with 786-0 renal, 30.5 µM; in the assay with IGROV1 ovarian, 4.17 µM; in the assay on OVCAR-4 ovarian, 49.6 µM. The results for the TGI in the assay on HCT-116 colon and in the assay with SF-268 CNS were 2.93 µM and 30.7 µM, respectively.

In the case of `Cc1cc(N2CCCC2)nc(NC2CCCC(Nc3ccnc4cc(Cl)ccc34)C2)n1` (centres undefined), the GI50 in the assay on SK-MEL-28 melanoma was 1.77 µM; in the assay on SK-MEL-5 melanoma it was 1.69 µM; in the assay on 786-0 renal, 1.45 µM; in the assay on IGROV1 ovarian, 0.967 µM; in the assay with OVCAR-4 ovarian it was 1.52 µM; in the assay on HCT-116 colon, 0.442 µM. Further, in the assay on SF-268 CNS, the GI50 was 1.19 µM. For the same molecule, the TGI in the assay with SK-MEL-28 melanoma was found to be 3.43 µM; with SK-MEL-5 melanoma it was 3.09 µM; in the assay with 786-0 renal, 2.87 µM; in the assay with IGROV1 ovarian, 3.2 µM; in the assay with OVCAR-4 ovarian it was 5.27 µM; in the assay on HCT-116 colon, 1.68 µM. Also, the TGI in the assay on SF-268 CNS amounted to 3.46 µM.

For `O=[N+]([O-])c1ccc(N=Nc2c(O)ccc3ccccc23)cc1`, the TGI was greater than 100 µM with SK-MEL-28 melanoma; greater than 100 µM with A549 NSCLC; greater than 100 µM with SK-MEL-5 melanoma; greater than 100 µM with 786-0 renal; greater than 100 µM in the assay on IGROV1 ovarian; 65.7 µM and > 100 µM in the assay with OVCAR-4 ovarian. Besides, the TGI in the assay on HCT-116 colon, with SF-268 CNS and in the assay with SR leukemia was greater than 100 µM each time. In addition, the GI50 was 28.2 µM and > 100 µM in the assay on A549 NSCLC; 24.3 µM and > 100 µM in the assay with OVCAR-4 ovarian; 35.9 µM and > 100 µM in the assay on SF-268 CNS.

With `COC1OC(C)C(O)CC1OS(=O)(=O)c1ccc(C)cc1` (centres undefined), the TGI in the assay on SK-MEL-28 melanoma, in the assay on A549 NSCLC, in the assay with SK-MEL-5 melanoma, in the assay with 786-0 renal, with IGROV1 ovarian and with OVCAR-4 ovarian was greater than 100 µM throughout. Besides, the TGI with HCT-116 colon, in the assay with MALME-3M melanoma and with SF-268 CNS was greater than 100 µM each time.

For `NC(=S)N/N=C(\C(=O)Nc1cccc([N+](=O)[O-])c1)c1nc2ccc([N+](=O)[O-])cc2[nH]c1=O`, the TGI with SK-MEL-28 melanoma, in the assay on A549 NSCLC, in the assay with SK-MEL-5 melanoma, with 786-0 renal, in the assay with IGROV1 ovarian and in the assay with OVCAR-4 ovarian was greater than 100 µM in each case. For the same molecule, the TGI with HCT-116 colon, in the assay with MALME-3M melanoma and in the assay on SF-268 CNS was greater than 100 µM in each case.

In the case of `Cc1ccc(-c2nc(N)nc3c2nnn3Cc2cccc(CO[C@H]3CCOC3)n2)o1`, the GI50 was greater than 100 µM in the assay with SK-MEL-28 melanoma; greater than 100 µM with A549 NSCLC; 53.6 µM in the assay on SK-MEL-5 melanoma; greater than 100 µM in the assay with 786-0 renal; greater than 100 µM in the assay on IGROV1 ovarian; 66.5 µM in the assay with OVCAR-4 ovarian. Moreover, the GI50 in the assay with HCT-116 colon, in the assay on MALME-3M melanoma and with SF-268 CNS was greater than 100 µM in each case. The TGI in the assay with SK-MEL-28 melanoma, in the assay with A549 NSCLC, with SK-MEL-5 melanoma, in the assay with 786-0 renal, in the assay on IGROV1 ovarian and in the assay with OVCAR-4 ovarian was greater than 100 µM throughout. Further, the TGI in the assay with HCT-116 colon, in the assay with MALME-3M melanoma and in the assay on SF-268 CNS was greater than 100 µM each time.

The values above are taken from PubChem BioAssay (NCI).
